Assay results published in patent US8048915B2, “Biologically active complex” (BioMas Ltd., priority 2001, dated 2011).
Several values for one entry are separate records, joined by “and”; a condition that tells them apart may be missing. Equal entries are not always repeated. Where two headings read alike, the source gives them in different places.

What was measured:
human mononuclear cells [1] = conditions: range of 1 to 10 ng/ml of cells; 72 hours incubation
Experimental: Aliquots of 0.2 ml from each sample were placed in wells of microplates (NUNC) (triplicates). […] Cells were further incubated overnight and harvested with a cell harvester.
Cells were further incubated overnight and harvested with a cell harvester.

IL-2 = tested on: IL-2
Experimental: The complexes were administered in these dilutions, as drinking water, to male Balb-C mice, 6-8 weeks of age over a 4 day period. The exact amount of liquid intake was recorded daily. […] The cells were incubated at a concentration of 10^7 cells/ml in enriched RPMI containing 2 μg/ml of con-A for 24 hours at 37° C. The supernatants were collected and tested for IL-2 content.

[2] = tested on: IL-2 receptors of human mononuclear cells; assay: Induction of IL-2 receptors of human mononuclear cells (proliferation with recombinant IL-2, 3H thymidine uptake); assay type: cell-based
Experimental: Human MNC were brought to a concentration of 10^6 cells/ml. RPMI+10% FCS. Aliquots of 0.2 ml. were placed in duplicate wells of microdishes and plates were incubated at 37° C. for 24 hrs. […] Plates were further incubated for 48 hrs and labeled with ^3H thymidine 24 hrs before harvesting. The proliferation was measured by ^3HT uptake as described by Gillis et al, J. Immunol. […] The results are expressed in counts per minute.

human mononuclear cells [3] = assay: Proliferation of human mononuclear cells (Example 14); assay type: cell-based; conditions: for proliferation of human mononuclear cells (3H methyl-thymidine): 72 hours + 24 hours label
Experimental: Human mononuclear cells were obtained by layering heparinized blood over a Ficoll/Hypaque gradient. The mononuclear cells were resuspended in enriched RPMI, rinsed three times and brought to a concentrations of 5×10^5cells/ml enriched RPMI. Varying concentrations of the complexes of Ex. 1 and Ex. 7(a), ranging from 0.005 μg to 5 μg/cell mixture were added to the cells. Aliquots of 0.2 ml of each sample were placed in wells of microplates (triplicates).

[4] = tested on: Ha-Ras transformed NIH-3T3 cells; assay: Colony growth of Ha-Ras transformed NIH-3T3 cells; assay type: cell-based; conditions: 0.005-5 μg/ml in PBS; one week; clones counted
Experimental: (§1) 5×10^2 cells were plated per 60 mm dish and incubated with different concentrations (0.005-5 μg/ml) of the complex in PBS. A week later, the cells were stained with Gimsa and clones were counted. Similar experiments were conducted using V-mos transformed NIH-3T3 cells, and also using Ph2TeCl2 and Ph3TeCl, with both types of transformed cells.

[5] = tested on: V-mos transformed NIH-3T3 cells; assay: Colony growth of V-mos transformed NIH-3T3 cells; assay type: cell-based; conditions: one week; clones counted
Experimental: as §1

IL-2 receptors = assay: IL-2 receptor sites on human mononuclear cells, fluoresceinated antibody; assay type: cell-based
Experimental: This example provides an assay to detect the presence of receptor sites for IL-2. […] The cells were washed twice with PBS and then incubated with a specific fluoresceinated antibody against IL-2 receptors as described in Uchiyama et al, J. Immunol.

human mononuclear cells [6] = assay: Proliferation of human mononuclear cells (Example 14); assay type: cell-based; conditions: 72 hours + 24 hours label
[7] = Solubility in phosphate buffer solution (PBS) at pH7; assay type: physicochemical
[8] = 10 μg/ml H2O as drinking water over 4 days

With “equimolar complex of TeO2 and ethylene glycol [Example 7(a)]” the “increase of proliferation of human mononuclear cells” value (human mononuclear cells [1]) was 10 fold, the “IL-2 content, cpm” value (IL-2; 1 μg/ml H2O as drinking water over 4 days) was 32843 cpm and the “IL-2 content, cpm” value (IL-2; [8]) was 42500 cpm. The “Percent increase as compared to control” value (IL-2; [8]) was “+30%”, the “IL-2 content, cpm” value (IL-2; 25 μg/ml H2O as drinking water over 4 days) was 36815 cpm and the “inducing lymphokine production when given orally” value (IL-2; orally in an aqueous diluent) was “active”. The “proliferation, 3HT uptake” value ([2]; Test B, 1 μg/ml) was 9315 counts per minute, the “proliferation, 3HT uptake” value ([2]; Test B, 1 × 10^−2 μg/ml) was 6418 counts per minute and the “proliferation, 3HT uptake” value ([2]; Test B, 1 × 10^−3 μg/ml) was 5167 counts per minute. For the same molecule, the “proliferation, 3HT uptake” value ([2]; Test B, 1 × 10^−4 μg/ml) was 5372 counts per minute, the “proliferation, 3HT uptake” value ([2]; Test B, 1 × 10^−5 μg/ml) was 6397 counts per minute and the “proliferation, 3HT uptake” value ([2]; Test B, 5 × 10^−1 μg/ml) was 8688 counts per minute. The “proliferation, 3HT uptake” value ([2]; Test B, 5 × 10^−2 μg/ml) was 5538 counts per minute, the “proliferation, 3HT uptake” value ([2]; Test B, 7 × 10^−1 μg/ml) was 5250 counts per minute and the “proliferation of human mononuclear cells (3H methyl-thymidine)” value (“proliferation … (3H methyl-thymidine)” for short) (human mononuclear cells [3]; 1 × 10^−4 μg/ml, listed as Ex. 7(a)) was 4321 and 2332. The “proliferation … (3H methyl-thymidine)” value (human mononuclear cells [3]; 5 × 10^−2 μg/ml, listed as Ex. 7(a)) was 5953 and 5532.

For Cl[Te](Cl)(c1ccccc1)c1ccccc1 [Ph2TeCl2, reference compound], the “number of colonies / growth compared with control” value [4] was “did not inhibit their growth” and the inhibition of growth [5] was “none of the complex, Ph2TeCl2 or Ph3TeCl inhibited the growth”.

For “Phytohemagglutinin M [Phytohemagglutinin M (Difco), reference compound]”, the “proliferation, 3HT uptake” value ([2]; Test A, positive control, concentration not given) was “Phytohemagglutinin M (Difco) 195,432 counts per minute”, the “proliferation, 3HT uptake” value ([2]; Test B, positive control, concentration not given) was “Phytohemagglutinin M (Difco) 125,272 counts per minute” and the “cells positive for IL-2 receptors” value (IL-2 receptors; in the presence of PHA, concentration not given) was 80%.

In the case of O=[Te]=O [TeO2, Tellurium dioxide, reference compound], the “proliferation, 3HT uptake” value ([2]; Test A, 1 μg/ml) is reported as 1563 counts per minute, the “proliferation, 3HT uptake” value ([2]; Test A, 1 × 10^−2 μg/ml) is reported as 3108 counts per minute and the “proliferation, 3HT uptake” value ([2]; Test A, 1 × 10^−3 μg/ml) is reported as 2867 counts per minute. For the same molecule, the “proliferation, 3HT uptake” value ([2]; Test A, 1 × 10^−4 μg/ml) was 5540 counts per minute, the “proliferation, 3HT uptake” value ([2]; Test A, 1 × 10^−5 μg/ml) was 3442 counts per minute and the “proliferation, 3HT uptake” value ([2]; Test A, 5 × 10^−1 μg/ml) was 4667 counts per minute. The “proliferation, 3HT uptake” value ([2]; Test A, 5 × 10^−2 μg/ml) was 2515 counts per minute, the “proliferation, 3HT uptake” value ([2]; Test A, 7 × 10^−1 μg/ml) was 2475 counts per minute and the “proliferation, 3HT uptake” value ([2]; Test B, 1 μg/ml) was 3275 counts per minute. For the same molecule, the “proliferation, 3HT uptake” value ([2]; Test B, 1 × 10^−2 μg/ml) was 3077 counts per minute, the “proliferation, 3HT uptake” value ([2]; Test B, 1 × 10^−3 μg/ml) was 3800 counts per minute and the “proliferation, 3HT uptake” value ([2]; Test B, 1 × 10^−4 μg/ml) was 2925 counts per minute. The “proliferation, 3HT uptake” value ([2]; Test B, 1 × 10^−5 μg/ml) was 3645 counts per minute, the “proliferation, 3HT uptake” value ([2]; Test B, 5 × 10^−1 μg/ml) was 5405 counts per minute and the “proliferation, 3HT uptake” value ([2]; Test B, 5 × 10^−2 μg/ml) was 4280 counts per minute. The “proliferation, 3HT uptake” value ([2]; Test B, 7 × 10^−1 μg/ml) was 4302 counts per minute, the “proliferation … (3H methyl-thymidine)” value (human mononuclear cells [3]; 1 μg/ml) was 2842 and the “proliferation … (3H methyl-thymidine)” value (human mononuclear cells [3]; 5 μg/ml) was 3028. The “proliferation … (3H methyl-thymidine)” value (human mononuclear cells [3]; 1 × 10^−1 μg/ml) was 4825, the “proliferation … (3H methyl-thymidine)” value (human mononuclear cells [3]; 1 × 10^−2 μg/ml) was 4730 and the “proliferation … (3H methyl-thymidine)” value (human mononuclear cells [3]; 5 × 10^−1 μg/ml) was 4773. For the same molecule, the “proliferation … (3H methyl-thymidine)” value (human mononuclear cells [3]; 5 × 10^−2 μg/ml) was 5802, the “effect on proliferation of human mononuclear cells” value (human mononuclear cells [3]; any concentration that was tested) was “*The concentrations that induced proliferation range from 5 × 10^−1 to 1 × 10^−1 μg. No significant effect was found for TeO2 at any concentration that was tested” and the “cells positive for IL-2 receptors” value (IL-2 receptors; 1 μg/ml, 24 hours incubation) was 5%. The “proliferation … (3H methyl-thymidine)” value (human mononuclear cells [6]; 1 × 10^−3 μg/ml) was 6168 and the “proliferation … (3H methyl-thymidine)” value (human mononuclear cells [6]; 1 × 10^−4 μg/ml) was 5331.

In the case of C1CO[Te]2(O1)OCCO2 [preparation 3], the solubility [7] is reported as 16 ± 0.4; mg Te/100 ml PBS.

In the case of “equimolar complex of TeO2 and ethane-1,2-diol [7(b)]”, the “proliferation, 3HT uptake” value ([2]; Test B, 1 μg/ml) is reported as 2620 counts per minute, the “proliferation, 3HT uptake” value ([2]; Test B, 1 × 10^−2 μg/ml) is reported as 3928 counts per minute and the “proliferation, 3HT uptake” value ([2]; Test B, 1 × 10^−3 μg/ml) is reported as 3007 counts per minute. The “proliferation, 3HT uptake” value ([2]; Test B, 1 × 10^−4 μg/ml) was 2327 counts per minute, the “proliferation, 3HT uptake” value ([2]; Test B, 1 × 10^−5 μg/ml) was 2242 counts per minute and the “proliferation, 3HT uptake” value ([2]; Test B, 5 × 10^−1 μg/ml) was 2402 counts per minute. The “proliferation, 3HT uptake” value ([2]; Test B, 5 × 10^−2 μg/ml) was 3290 counts per minute and the “proliferation, 3HT uptake” value ([2]; Test B, 7 × 10^−1 μg/ml) was 2000 counts per minute.

For Cl[Te](c1ccccc1)(c1ccccc1)c1ccccc1 [Ph3TeCl, reference compound], the “number of colonies / growth compared with control” value [4] was “did not inhibit their growth” and the inhibition of growth [5] was “none of the complex, Ph2TeCl2 or Ph3TeCl inhibited the growth”.

In the case of Cl[Te](Cl)(Cl)Cl [TeCl4, tellurium tetrachloride], the solubility [7] is reported as 2.3 ± 0.1; mg Te/100 ml PBS.
